This is an account of results in publication PMC6033897, “Characterization and Validation of a Human 3D Cardiac Microtissue for the Assessment of Changes in Cardiac Pathology” (Scientific Reports, 2018).

Data set [1] has as its system cardiac microtissues. Kind of data set: Cellular viability (ATP depletion, CellTiter-Glo) in cardiac microtissues. The format is cell-based, human. The settings on record: Homo sapiens, cardiac microtissues, read-out: Cellular viability (ATP depletion) IC50. The protocol:
(§1) Cellular ATP concentrations were assessed using the CellTiter-Glo® Luminescent Cell Viability Assay as per the manufacturer’s instructions (Promega); for cardiac microtissues 40 µl media was removed prior to the addition of 40 µl CellTiter-Glo® reagent. […] Data from the same treatment on minimum of 3 occasions were averaged to represent the mean ATP measurement.
For orientation: Cellular ATP, detected with luciferase, serves as a proxy for viable cell number.

The subject of data set [2] is cardiac microtissues. Kind of data set: ER integrity (ER-Tracker blue imaging) in cardiac microtissues. The format is cell-based, human. The settings on record: Homo sapiens; cardiac microtissues, 72 hours, geometric mean; read-out: ER integrity IC50. The protocol: (§2) Cardiac microtissues were stained with fluorescent probes in cell culture media, 40 µl media was removed and 40 µl of 2x multiplexed dye was added back to the well for 30 minutes at 37 °C, 5% CO2. Fluorescent probes used were ER-Tracker blue (2 µM) to measure endoplasmic reticulum (ER) integrity and TMRE (500 nM) to measure mitochondrial membrane potential (ΔΨm). All microtissues were imaged on a Cell Voyager 7000 (YokogawaInc.) and images captured using a 20x objective (Olympus UPLSAPO 0.75 NA, 0.6 mm WD), with a 2 × 2 bin. Plates are imaged live, prior to use the stage temperature was set to 37 °C and CO2 level at 5%. […] Transmitted light images were acquired using a 100 W Halogen lamp as an illumination source. Images were captured over a 60 μm range in the Z-axis with a 5 μm interval between slices. Z-stack images were output as a maximal projection of multiple z-planes.
(§3) Maximum projection images were imported and analysed in the Columbus Platform (v2.7, Perkin Elmer Inc.).

The subject of data set [3] is cardiac microtissues. Briefly: Mitochondrial membrane potential (ΔΨm, TMRE imaging) in cardiac microtissues. The format is cell-based, human. The note with it: Homo sapiens; cardiac microtissues, 72 hours, geometric mean; read-out: Mitochondrial membrane potential (ΔΨm) IC50. The protocol: as §2, §3
In data set [4] the test system is cardiac microtissues. Briefly: Therapeutic index (IC50 in cardiac microtissues divided by total Cmax). It is filed as cell-based, human.
Protocol: The outcome of a drug being either toxic or non-toxic is determined by exposure. Consequently, it is important to consider therapeutically relevant maximum total plasma concentrations (Cmax) when investigating drug-induced toxicity. We questioned whether this approach can detect changes in drug-induced cardiac structure at relevant therapeutic concentrations. […] The cardiac structural changes of compounds could be divided into four categories: (1) at least one parameter modulated at a concentration of within 10-times the Cmax, (2) at least one parameter modulated at a concentration of within 100-times the Cmax, (3) changes in cardiac structure occurred at concentrations of above 100-times the Cmax concentration, (4) the changes in cardiac structure was not detected in this approach (i.e. no IC50 value could be calculated).
In data set [5] the test system is hCMEC. Briefly: ER integrity in 2D monoculture. The note with it: Homo sapiens. The format is cell-based. The protocol:
(§4) For 2D monoculture, hiPS-CM, hCMEC and hCF were cultured as described above and seeded in CellCarrier-384 Ultra microplates (Perkin Elmer, 6057300) at 5000, 2500 and 1750 cells/well respectively.
(§5) Monoculture cells were stained with fluorescent probes diluted in cell culture media, 25 µl media was removed and 25 µl of 2x multiplexed dye was added back to the well for 15 minutes at 37 °C, 5% CO2.

The subject of data set [6] is hiPS-CM. Kind of data set: ER integrity in 2D monoculture. The format is cell-based. The note with it: Homo sapiens. As for the experimental part:
as §4, §5

Data set [7] has as its system hCMEC. Briefly: Mitochondrial membrane potential (ΔΨm) in 2D monoculture. The format is cell-based. The note with it: Homo sapiens. As for the experimental part:
as §4, §5

Data set [8] relates to hiPS-CM. Described as above. The settings on record: Homo sapiens. It is filed as cell-based. The protocol:
as §4, §5

Data set [9] deals with hCMEC. Kind of data set: Cellular viability (ATP depletion) in 2D monoculture. It is filed as cell-based. The settings on record: Homo sapiens. As for the experimental part: as §4, §1
Data set [10] relates to hiPS-CM. The data set is described as above. The note with it: Homo sapiens. The format is cell-based. The protocol: as §4, §1
Another data set has as its system cardiac spheroids. Also on record: method as in PMID 28765558. The settings on record: alternative cardiac spheroids; cited from earlier work.
For data set [11] the following is noted: total Cmax, therapeutically relevant maximum total plasma concentration; source not given; cited from earlier work.
The test system of data set [12] is hCF. Kind of data set: ER integrity in 2D monoculture. The settings on record: Homo sapiens, read-out: ER integrity IC50.
Data set [13] concerns hCF. Briefly: Cellular viability (ATP depletion) in 2D monoculture. The settings on record: Homo sapiens, read-out: Cellular viability (ATP depletion) IC50.
The subject of data set [14] is hCF. Briefly: Mitochondrial membrane potential (ΔΨm) in 2D monoculture. The settings on record: Homo sapiens, read-out: Mitochondrial membrane potential (ΔΨm) IC50.
The test system of another data set is H9c2 cells. Also on record: method as in PMID 18664550. The note with it: read-out: reported IC50 value in H9c2 cells; cited from earlier work.
Another data set concerns hESC-CMs. The settings on record: read-out: reported IC50 value in hESC-CMs; cited from earlier work.
In data set [15] the test system is cardiac microtissues. Briefly: Histopathology (H&E, IHC, IF) of treated cardiac microtissues. It is filed as cell-based, human. The settings on record: 24 hours; sunitinib 100 µM; doxorubicin 0.1 and 30 µM (Fig. 2). The protocol:
Microtissues were harvested from 384 well-plates and washed twice in 1x PBS (Sigma P7059) subsequent to fixation in 3.7% paraformaldehyde (PFA) (Sigma F1635) at 4 °C for one hour. The 3.7% PFA was then removed and replaced with two washes of 1x PBS. The PBS was removed and replaced with liquid HistoGel (Thermo Fisher HG-4000-012) and left on ice for 30 minutes to solidify. The HistoGel pellet was placed into a histological cassette and processed using an enclosed tissue processor overnight. The HistoGel was then embedded using paraffin wax.
The formalin fixed paraffin embedded (FFPE) blocks were then sectioned at each time point at three 50 µm step levels with 8 × serial sections per level at 3 µm. H&E staining was performed on microtissue sections using Mayer’s Haematoxylin using a standard automated protocol. Standard automated immunohistochemistry (IHC) and immunofluorescence (IF) protocols were used for primary antibody detection at different dilutions (Supplementary Table 3) on microtissue sections. Diaminobenzadine (DAB) (Roche Diagnostics 760–159) was used to visualise positive staining in single-plex staining and Alkaline Phosphatase Fast Red (Roche Diagnostics 760–160) with DAB were used in dual staining, with a haematoxylin counterstain. […] A minimum of 15 microtissues per time point/treatment were evaluated. […]

The structures appear in SMILES notation. pIC50: −log10 of the molar value. Counter-ions that a name gives are not always drawn. Where only a bound is given, the exact number is not on record here.

Take `Cc1nc(Nc2ncc(C(=O)Nc3c(C)cccc3Cl)s2)cc(N2CCN(CCO)CC2)n1` [Dasatinib]: the pIC50 was 4.57 in the data set on cardiac microtissues [1] (72 hours, geometric mean); less than 4.00 with cardiac microtissues [2]; less than 4.00 with cardiac microtissues [3]. In addition, the “Therapeutic index (TI): lowest IC50 of ΔΨm, ER integrity or ATP depletion / total Cmax” value in the data set on cardiac microtissues [4] is listed as no more than 100 times Cmax.

As for `COc1cccc2c1C(=O)c1c(O)c3c(c(O)c1C2=O)C[C@@](O)(C(=O)CO)C[C@@H]3O[C@H]1C[C@H](N)[C@H](O)[C@H](C)O1` [Doxorubicin HCl], the pIC50 with cardiac microtissues [1] (24 hours) is 4.81; in the data set on cardiac microtissues [1] (72 hours, geometric mean) it was 6.08; in the data set with cardiac microtissues [2], 5.50; with cardiac microtissues [3] it was 6.74; with hCMEC [5] (24 hours) it was 4.36; in the data set with hCMEC [5] (72 hours), 4.51. For the same molecule, the negative logarithm of the IC50 (pIC50) is 4.98 in the data set with hiPS-CM [6] (24 hours); 4.12 in the data set with hiPS-CM [6] (72 hours); less than 4.30 in the data set on hCMEC [7] (24 hours); less than 4.30 with hCMEC [7] (72 hours); 5.08 in the data set with hiPS-CM [8] (24 hours); 4.77 in the data set with hiPS-CM [8] (72 hours). The pIC50 with hCMEC [9] (24 hours) was 5.99; in the data set with hCMEC [9] (72 hours), 7.00; in the data set with hiPS-CM [10] (24 hours) it was 5.03; in the data set on hiPS-CM [10] (72 hours), 6.00; with hCF [12] (24 h), 5.19; in the data set on hCF [12] (72 h), 4.33. The pIC50 with hCF [13] (24 h) was 6.21; with hCF [13] (72 h), 6.96; in the data set on hCF [14] (24 h) it was less than 4.30; in the data set with hCF [14] (72 h) it was less than 4.30. Besides, the “Concentration range with significant change in live/dead staining” value with cardiac spheroids was 5 to 40 µM. In addition, in [11], the Cmax is 15.3 µM.

For the molecule `CNC(=O)c1cc(Oc2ccc(NC(=O)Nc3ccc(Cl)c(C(F)(F)F)c3)cc2)ccn1` [Sorafenib Tosylate], the pIC50 with cardiac microtissues [1] (72 hours, geometric mean) is 5.06; in the data set on cardiac microtissues [2], 5.19; with cardiac microtissues [3], 5.09; in the data set on H9c2 cells, 4.35; with hESC-CMs it was 4.82.

With `CCN(CC)CCNC(=O)c1c(C)[nH]c(/C=C2\C(=O)Nc3ccc(F)cc32)c1C` [Sunitinib Malate], the pIC50 in the data set with cardiac microtissues [1] (24 hours) was 4.33; with cardiac microtissues [1] (72 hours, geometric mean) it was 5.08; with cardiac microtissues [2], 6.41; with cardiac microtissues [3] it was 5.59; in the data set on hCMEC [5] (24 hours), 5.53; with hCMEC [5] (72 hours), 4.90. The pIC50 with hiPS-CM [6] (24 hours) is 5.35; in the data set with hiPS-CM [6] (72 hours), 5.58; in the data set on hCMEC [7] (24 hours) it was 5.02; in the data set on hCMEC [7] (72 hours), 5.53; in the data set with hiPS-CM [8] (24 hours), 4.79; in the data set on hiPS-CM [8] (72 hours), 4.79. Further, the pIC50 with hCMEC [9] (24 hours) is 5.31; in the data set on hCMEC [9] (72 hours), 6.10; with hiPS-CM [10] (24 hours) it was 4.61; in the data set with hiPS-CM [10] (72 hours), 4.57; in the data set with hCF [12] (24 h), 5.18; in the data set on hCF [12] (72 h) it was 6.43. Moreover, the pIC50 is 4.78 in the data set with hCF [13] (24 h), 5.40 in the data set on hCF [13] (72 h), 4.75 with hCF [14] (24 h) and 4.94 in the data set with hCF [14] (72 h). The “Histopathological / morphological changes” value in the data set with cardiac microtissues [15] is “clear reduction in overall cellularity”. Further, the Cmax in [11] was 0.25 µM.

Usually pIC50 stands for −log10 of the IC50, conventionally taken in molar units. As a reminder, the Cmax is the maximum level reached in the sampled fluid or tissue.
